Assay results reported in patent US20060088882A1, “Methods for the treatment or prevention of obesity” (priority 2002, published 2006).

Assays:
VEGFR2 = VEGFR2 (Homo sapiens, UniProt P35968); details: cited from earlier work
VEGFR1 = VEGFR1 (Homo sapiens, UniProt P17948); details: cited from earlier work
3T3-F442A preadipocytes = assay: In vitro differentiation of 3T3-F442A preadipocytes (Oil Red O staining); format: cell-based, mouse
Protocol: FIGS. 5A-5C are pictures of preadipocyte differentiation. FIG. 5A is a transillumination image of differentiated adipocytes in vitro. FIG. 5B is a fluorescence image of differentiated adipocytes in vivo. FIG. 5C is a picture showing the effect of PPARγ inhibition on adipogenesis. Preadipocytes (1×10^5 cells) were plated in a 6-well plate and transfected at a multiplicity of infection of 10^4 plaque forming units/cell using mock- (upper panels) or PPARγ-DN adenovirus (lower panels) and differentiation was promoted by using media containing 10% FBS.
FIG. 7A and 7B illustrate the effect of VEGF on preadipocyte differentiation and proliferation. To investigate the effects of VEGF on the in vitro differentiation of preadipocytes, 3T3-F442A cells were grown to confluence in media supplemented with calf serum (FCS, maintenance media), and exposed to increasing concentrations of murine recombinant VEGF164 (R&D Systems, Minneapolis, Minn.) from 0-100 ng/ml. […] Adipocyte differentiation was assessed by Oil Red O staining.
The bar indicates 50 μm. […] MTT assay was performed at day 4. […] Data are normalized to the control condition (FBS). Error bars represent standard error.
VEGFR2 expression was undetectable in the preadipocytes.

preadipocytes [1] = details: exogenous VEGF added to culture media, doses as high as 100 ng/ml; MTT assay
Protocol: For proliferation assays, 500 preadipocytes and fibroblasts were plated in 96 well plates, and mouse recombinant VEGF164 (50 ng/ml) and PBS were added (FIG. 7B). An MTT assay was performed at day 4, when the cells were still subconfluent in all wells. Culture media were changed with 100 μl of fresh media, and 10 μl of sterile tetrazolium salt, MTT (3[4,5-dimethylthiazol-2-yl]-2,5-diphenyl-tetrazolium bromide, Sigma) was added in each well and incubated for four hours at 37° C. Finally, 100 μl of 10% SDS were added, and after incubation at 37° C. overnight, the plate was read at 490 nm. The optical density values were normalized to that of the PBS treated cells and used as a measure of viability.
For MTT assays, mouse recombinant VEGF (50 ng/ml) and PBS, and rat IgG (1 μg/ml) were used. MTT assay was performed at day 4. The optical density values were normalized to that of the PBS treated cells and were used as a measure of viability (FIGS. 8B and 8C). MTT assay for preadipocytes after four days of culture with endothelial conditioned media. “FBS” denotes non-conditioned culture media with 10% FBS; “SN” denotes supernatant, endothelial conditioned media cultured with 10% FBS but no other additives; “SN/VEGF/IgG” denotes endothelial conditioned media cultured with 10% FBS, VEGF (50 ng/ml) and non-specific IgG (5 μg/ml). Data are normalized to the control condition (FBS). […]

preadipocytes [2] = details: conditioned media from endothelial cells cultured in the presence of VEGF (50 ng/ml); day 11; normalized to SN control
Text: Error bars represent standard error.
The media was changed every other day.

preadipocytes [3] = details: conditioned media from endothelial cells cultured in the presence of VEGF and IgG; MTT assay
Protocol: For MTT assays, mouse recombinant VEGF (50 ng/ml) and PBS, and rat IgG (1 μg/ml) were used. MTT assay was performed at day 4. The optical density values were normalized to that of the PBS treated cells and were used as a measure of viability (FIGS. 8B and 8C). MTT assay for preadipocytes after four days of culture with endothelial conditioned media. “FBS” denotes non-conditioned culture media with 10% FBS; “SN” denotes supernatant, endothelial conditioned media cultured with 10% FBS but no other additives; “SN/VEGF/IgG” denotes endothelial conditioned media cultured with 10% FBS, VEGF (50 ng/ml) and non-specific IgG (5 μg/ml). Data are normalized to the control condition (FBS). Error bars represent standard error.
To assess the paracrine effects of VEGF on cell proliferation, preadipocytes were plated as described for FIG. 8B with conditioned media from endothelial cells cultured in the presence of VEGF and IgG. At day 5, the assay was perform as described, and the optical density for the cells cultured in non-conditioned media was used as a measure of viability.

VEGFR1, sequence (P17948 27-1338, species assumed): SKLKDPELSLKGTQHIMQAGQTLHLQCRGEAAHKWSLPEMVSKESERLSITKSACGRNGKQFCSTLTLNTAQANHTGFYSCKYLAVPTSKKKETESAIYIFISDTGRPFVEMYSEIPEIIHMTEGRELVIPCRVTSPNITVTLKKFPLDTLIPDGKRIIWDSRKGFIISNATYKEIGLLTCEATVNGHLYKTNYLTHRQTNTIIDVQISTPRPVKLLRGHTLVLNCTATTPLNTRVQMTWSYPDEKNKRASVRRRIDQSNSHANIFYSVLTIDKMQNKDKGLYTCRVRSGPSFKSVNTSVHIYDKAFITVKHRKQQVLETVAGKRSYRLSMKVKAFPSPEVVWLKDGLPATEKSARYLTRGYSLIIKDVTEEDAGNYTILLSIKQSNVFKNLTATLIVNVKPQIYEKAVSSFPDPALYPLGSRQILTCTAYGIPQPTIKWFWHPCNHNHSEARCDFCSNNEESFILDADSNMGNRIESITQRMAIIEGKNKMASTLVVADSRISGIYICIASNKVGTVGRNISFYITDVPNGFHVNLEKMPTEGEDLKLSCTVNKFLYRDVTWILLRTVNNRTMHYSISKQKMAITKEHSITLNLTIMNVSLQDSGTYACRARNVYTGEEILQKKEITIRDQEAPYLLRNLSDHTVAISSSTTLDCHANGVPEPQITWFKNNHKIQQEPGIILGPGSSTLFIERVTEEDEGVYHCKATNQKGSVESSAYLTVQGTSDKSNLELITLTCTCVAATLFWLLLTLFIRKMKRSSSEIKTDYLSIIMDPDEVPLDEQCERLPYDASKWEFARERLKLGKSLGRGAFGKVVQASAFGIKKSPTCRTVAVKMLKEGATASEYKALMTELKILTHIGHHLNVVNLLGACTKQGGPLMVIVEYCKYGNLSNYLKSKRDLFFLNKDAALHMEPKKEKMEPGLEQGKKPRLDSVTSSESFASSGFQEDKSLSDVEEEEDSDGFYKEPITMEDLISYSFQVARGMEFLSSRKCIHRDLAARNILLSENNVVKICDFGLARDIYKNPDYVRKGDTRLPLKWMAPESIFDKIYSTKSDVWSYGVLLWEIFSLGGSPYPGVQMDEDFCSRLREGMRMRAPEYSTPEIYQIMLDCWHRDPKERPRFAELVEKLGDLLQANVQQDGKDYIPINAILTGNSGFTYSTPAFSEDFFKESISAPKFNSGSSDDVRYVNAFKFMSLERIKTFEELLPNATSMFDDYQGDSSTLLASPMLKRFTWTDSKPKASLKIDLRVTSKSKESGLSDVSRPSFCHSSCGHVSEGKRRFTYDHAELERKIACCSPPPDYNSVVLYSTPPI
VEGFR2, sequence (P35968 20-1356, species assumed): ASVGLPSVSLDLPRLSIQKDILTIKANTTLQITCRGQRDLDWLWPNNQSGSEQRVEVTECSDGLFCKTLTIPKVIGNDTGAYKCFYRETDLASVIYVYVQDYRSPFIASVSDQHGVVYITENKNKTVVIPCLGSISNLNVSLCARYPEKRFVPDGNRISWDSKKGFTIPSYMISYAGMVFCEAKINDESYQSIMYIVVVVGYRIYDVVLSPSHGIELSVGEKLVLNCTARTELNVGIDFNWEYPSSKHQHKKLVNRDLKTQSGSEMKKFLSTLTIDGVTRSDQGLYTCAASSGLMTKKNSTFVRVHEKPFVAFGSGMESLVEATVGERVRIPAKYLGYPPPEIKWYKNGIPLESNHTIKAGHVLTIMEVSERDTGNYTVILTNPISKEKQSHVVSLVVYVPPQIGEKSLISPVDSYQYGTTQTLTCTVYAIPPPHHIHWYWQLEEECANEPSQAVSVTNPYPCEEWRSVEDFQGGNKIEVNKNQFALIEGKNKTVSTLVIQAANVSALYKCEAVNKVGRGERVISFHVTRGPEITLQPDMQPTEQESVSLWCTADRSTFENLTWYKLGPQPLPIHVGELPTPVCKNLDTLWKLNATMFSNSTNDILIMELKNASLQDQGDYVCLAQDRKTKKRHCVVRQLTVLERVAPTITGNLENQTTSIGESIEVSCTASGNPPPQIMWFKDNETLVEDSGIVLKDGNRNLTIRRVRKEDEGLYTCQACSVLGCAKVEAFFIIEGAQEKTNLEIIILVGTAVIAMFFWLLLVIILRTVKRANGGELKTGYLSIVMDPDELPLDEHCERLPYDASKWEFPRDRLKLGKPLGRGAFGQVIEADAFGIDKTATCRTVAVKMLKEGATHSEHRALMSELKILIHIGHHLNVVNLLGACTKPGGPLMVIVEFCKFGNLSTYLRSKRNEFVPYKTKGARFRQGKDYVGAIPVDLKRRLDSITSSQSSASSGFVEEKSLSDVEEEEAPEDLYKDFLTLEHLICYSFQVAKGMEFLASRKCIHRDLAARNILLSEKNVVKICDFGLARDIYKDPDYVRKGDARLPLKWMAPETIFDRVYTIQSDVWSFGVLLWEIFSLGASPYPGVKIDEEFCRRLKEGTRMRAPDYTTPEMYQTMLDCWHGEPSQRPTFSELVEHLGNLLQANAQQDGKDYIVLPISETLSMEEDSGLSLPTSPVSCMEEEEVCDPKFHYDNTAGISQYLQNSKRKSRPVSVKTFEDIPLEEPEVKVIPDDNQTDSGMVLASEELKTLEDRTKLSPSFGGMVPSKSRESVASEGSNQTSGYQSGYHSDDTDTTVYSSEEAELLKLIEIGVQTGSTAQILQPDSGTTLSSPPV

Compound	inhibition of VEGFR2 (VEGFR2)	inhibition of VEGFR1 (VEGFR1)	differentiation rate of preadipocytes (3T3-F442A preadipocytes; differentiation media (10% FBS), VEGF 0-100 ng/ml or 50 ng/ml, Oil Red O staining)	adipose cell differentiation in vitro (3T3-F442A preadipocytes; exogenous VEGF added to culture media, doses as high as 100 ng/ml)	induction of differentiation in preadipocytes (3T3-F442A preadipocytes; maintenance media (10% calf serum), VEGF 0-100 ng/ml or 50 ng/ml, Oil Red O staining)	adipose cell proliferation and survival in vitro (preadipocytes [1])	aP2 expression (differentiation of preadipocytes) (preadipocytes [2])	preadipocyte survival/proliferation (preadipocytes [3])
CCCNC(=O)Nc1ccc(Oc2ncnc3cc(OC)c(OC)cc23)cc1Cl [KRN633]	inhibits	inhibits	–	–	–	–	–	–
VEGF	–	–	did not increase the differentiation rate	not significantly affected	did not induce differentiation	not significantly affected	almost three-fold increase	increased preadipocyte survival/proliferation
